{"source": "patent US20250235543A1", "about": "“MODIFIED PROTEINS AND PROTEIN DEGRADERS” (Cullgen (Shanghai), Inc., priority 2021, published 2025)", "key": {"CDK4": {"molecular_target": "T1, CDK4 (Homo sapiens, UniProt P11802)", "T1 construct": "endogenous in cells; host or cells: Calu-1", "T1 sequence (P11802 2-303 limits assumed)": "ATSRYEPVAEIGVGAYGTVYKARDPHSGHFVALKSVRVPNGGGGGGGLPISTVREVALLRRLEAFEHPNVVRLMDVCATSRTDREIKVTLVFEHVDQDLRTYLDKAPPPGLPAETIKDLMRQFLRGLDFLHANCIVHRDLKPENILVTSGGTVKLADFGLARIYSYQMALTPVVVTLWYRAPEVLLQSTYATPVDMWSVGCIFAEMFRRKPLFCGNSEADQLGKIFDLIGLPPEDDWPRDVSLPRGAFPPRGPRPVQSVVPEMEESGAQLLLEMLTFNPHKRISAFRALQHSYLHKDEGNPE", "T1 sequence (P24385 whole entry partner)": "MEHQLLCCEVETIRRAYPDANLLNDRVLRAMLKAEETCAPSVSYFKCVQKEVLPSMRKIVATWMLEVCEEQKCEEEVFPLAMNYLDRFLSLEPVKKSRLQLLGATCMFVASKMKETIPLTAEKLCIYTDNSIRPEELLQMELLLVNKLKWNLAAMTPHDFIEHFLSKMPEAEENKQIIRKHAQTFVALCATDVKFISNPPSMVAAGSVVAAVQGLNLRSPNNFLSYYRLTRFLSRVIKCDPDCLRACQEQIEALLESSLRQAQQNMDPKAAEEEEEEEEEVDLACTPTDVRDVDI", "T1 sequence (Q16531 2-1140 limits assumed, further chain)": "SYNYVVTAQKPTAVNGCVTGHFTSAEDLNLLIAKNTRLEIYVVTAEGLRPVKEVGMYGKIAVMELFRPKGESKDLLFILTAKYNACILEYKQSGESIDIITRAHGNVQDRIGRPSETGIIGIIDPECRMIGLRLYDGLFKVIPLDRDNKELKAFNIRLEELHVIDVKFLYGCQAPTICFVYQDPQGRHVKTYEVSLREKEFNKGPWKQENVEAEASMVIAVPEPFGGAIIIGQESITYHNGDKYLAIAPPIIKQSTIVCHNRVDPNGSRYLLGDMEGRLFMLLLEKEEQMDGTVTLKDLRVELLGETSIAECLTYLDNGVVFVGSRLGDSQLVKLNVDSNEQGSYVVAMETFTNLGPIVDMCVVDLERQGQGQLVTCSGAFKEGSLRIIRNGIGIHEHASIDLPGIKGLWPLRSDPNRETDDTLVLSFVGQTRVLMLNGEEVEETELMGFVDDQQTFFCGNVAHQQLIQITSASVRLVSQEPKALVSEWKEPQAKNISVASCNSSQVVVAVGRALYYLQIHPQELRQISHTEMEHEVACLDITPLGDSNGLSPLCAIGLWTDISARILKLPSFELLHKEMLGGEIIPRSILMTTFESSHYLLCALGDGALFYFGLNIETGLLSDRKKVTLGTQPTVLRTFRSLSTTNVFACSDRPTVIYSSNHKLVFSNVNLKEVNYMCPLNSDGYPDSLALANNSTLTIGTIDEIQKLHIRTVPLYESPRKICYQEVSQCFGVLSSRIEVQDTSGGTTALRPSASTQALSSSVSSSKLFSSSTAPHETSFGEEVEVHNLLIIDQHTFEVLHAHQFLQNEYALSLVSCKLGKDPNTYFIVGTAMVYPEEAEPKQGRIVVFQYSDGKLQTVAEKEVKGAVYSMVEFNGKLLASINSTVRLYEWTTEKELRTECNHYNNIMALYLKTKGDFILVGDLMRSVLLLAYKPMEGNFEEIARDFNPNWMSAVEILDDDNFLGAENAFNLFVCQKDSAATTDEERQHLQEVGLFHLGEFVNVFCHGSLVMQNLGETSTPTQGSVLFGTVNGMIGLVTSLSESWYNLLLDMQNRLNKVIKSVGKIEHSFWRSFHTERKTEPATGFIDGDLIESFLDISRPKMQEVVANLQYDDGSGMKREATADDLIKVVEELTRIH", "test": "CDK4 percentage degradation in Calu-1 cells (immunoblotting)", "type": "cell-based", "details": "for inhibition at 0.2 µM: 200 nM, read-out: CDK4 Degradation (200 nM); for inhibition at 10 µM: read-out: CDK4 Degradation (10 μM)", "procedure,_shortened": "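CDK4 degradation was measured by immunoblotting. Cells were washed in cold PBS and lysed in RIPA buffer with inhibitors for 30 min at 4° C., then spun at 13,000 rpm to clear. After BCA protein determination, lysates were heated at 99° C. for 5 min in Laemmli buffer, resolved on SDS-PAGE, imaged on a ChemiDoc MP with ECL substrate, and band intensities quantified.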"}, "cyclin D1": {"test_system": "cyclin D1", "test": "Cyclin D1 percentage degradation in Calu-1 cells (immunoblotting)", "type": "cell-based", "details": "16 hours", "procedure,_shortened": "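Cyclin D1 degradation was assessed by western blot. Clarified lysates, obtained by RIPA lysis with inhibitors and centrifugation at 13,000 rpm, were normalized by BCA protein assay and separated by SDS-PAGE. Bands were detected with Western ECL Substrate on a Bio-Rad ChemiDoc MP Imaging system and quantified in Image Lab software to derive percentage degradation.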"}, "DDB1": {"molecular_target": "T2, DDB1 (Homo sapiens, UniProt Q16531, D705G/DEL396-460/DEL463-701/I704S/T703N)", "T2 construct": "His6 (N, cleaved yes); TEV protease cleavage site (N, cleaved yes); made in house; host or cells: SF9 insect cells, Bac-to-Bac baculovirus, pFastBacHTB vector", "T2 sequence (Q16531 other isoform, or with tags, fused parts or gaps DEL396-460/DEL463-701/T703N/I704S/D705G)": "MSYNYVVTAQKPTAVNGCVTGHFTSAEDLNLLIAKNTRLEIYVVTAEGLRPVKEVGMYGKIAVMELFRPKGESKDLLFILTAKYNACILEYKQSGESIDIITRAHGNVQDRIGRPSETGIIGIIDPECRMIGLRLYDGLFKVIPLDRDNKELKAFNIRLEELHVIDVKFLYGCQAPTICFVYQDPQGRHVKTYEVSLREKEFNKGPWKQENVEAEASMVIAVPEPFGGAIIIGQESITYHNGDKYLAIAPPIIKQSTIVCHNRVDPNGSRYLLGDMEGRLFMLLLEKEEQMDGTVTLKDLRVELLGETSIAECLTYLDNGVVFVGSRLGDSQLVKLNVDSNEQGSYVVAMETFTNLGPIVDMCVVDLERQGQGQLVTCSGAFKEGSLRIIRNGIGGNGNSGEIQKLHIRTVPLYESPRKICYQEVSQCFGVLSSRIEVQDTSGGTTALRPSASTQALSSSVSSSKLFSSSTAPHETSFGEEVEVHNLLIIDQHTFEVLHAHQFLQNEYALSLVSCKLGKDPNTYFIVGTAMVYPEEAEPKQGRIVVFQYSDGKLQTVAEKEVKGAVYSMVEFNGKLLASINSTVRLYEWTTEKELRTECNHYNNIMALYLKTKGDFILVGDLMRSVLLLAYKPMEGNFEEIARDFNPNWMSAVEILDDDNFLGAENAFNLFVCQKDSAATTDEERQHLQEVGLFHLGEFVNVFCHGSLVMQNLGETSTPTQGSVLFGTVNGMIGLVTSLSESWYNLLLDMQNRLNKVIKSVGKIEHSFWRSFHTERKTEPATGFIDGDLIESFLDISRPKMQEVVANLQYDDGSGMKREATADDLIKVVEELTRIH", "test": "SPR binding assay to immobilized DDB1ΔBPB", "details": "binding affinities to DDB1", "method": "The binding affinities of heterobifunctional compounds to DDB1 were determined by SPR assay (FIG. 1A-1B). Purified DDB1ΔBPB proteins were immobilized on a CM5 sensor chip, and a dose range of compound solutions were injected in multi-cycle kinetic format. Data were fit to a steady state model to provide equivalent dissociation constants (Kd).\nHuman DDB1ΔBPB (UniProt: Q16531. BPB domain, aa 396 to 705, is replaced with a GNGNSG linker) coding sequences were cloned into pFastBacHTB vector and were expressed in SF9 cells using Bac-to-Bac baculovirus expression system (Thermo Fisher Scientific). The expression constructs include an N-terminal His6-tag to facilitate the purification, and a TEV protease cleavage site in between. DDB1ΔBPB proteins were obtained from supernatant of cell lysates and purified through sequential application of Ni affinity column (Ni-NTA column, Bio-Rad) and size-exclusion column (Superdex 200 16/600GL column, GE Healthcare) chromatography. Protein tags were cleaved off by TEV protease, and the resulting untagged proteins were further purified by Ni affinity column. Purified proteins were verified by immunoblotting, analytic SEC, and LC-MS.\nSPR studies were performed on a Biacore X100 plus instrument (GE Healthcare). Immobilization of purified DDB1ΔBPB was carried out at 25° C. using a CM5 sensor chip. The surface was pre-equilibrated in HBS-EP running buffer (10 mM HEPES, pH7.4, 150 mM NaCl, 3 mM EDTA, 0.05% P20), before it was activated with EDC/NHS. DDB1ΔBPB proteins were immobilized by amine coupling to a density of 10,000-12,000 resonance units (RUs) on flow cell FC2, whereas flow cell FC1 was used as reference. Both protein immobilized and reference surfaces were deactivated with 1M ethanolamine. All interaction experiments were performed at 25° C. Test compounds were prepared and serially diluted in HBS-EP running buffer containing final 5% DMSO (6-point two-fold serial dilution, 100 μM-3.125 μM final concentration of compounds). Compound solutions were injected individually in multi-cycle kinetic format without regeneration (flow rate 30 μl/min, association time 120 s, dissociation time 120 s). Sensorgrams from reference surfaces and blank injections were subtracted from the raw data (double-referencing) and the data was solvent-corrected prior to analysis. All data were fit to steady state affinity model using Biacore Evaluation Software to provide equivalent dissociation constants (Kd)."}}, "note": "Read-outs that look alike come from different tables or passages of the source.", "data": [{"molecule": "CC(=O)c1c(C)c2cnc(Nc3ccc(N4CCN(CC(=O)NCCOCCOCCOCCC(=O)Nc5ccccc5C(=O)Nc5nc(C)c(C)s5)CC4)cn3)nc2n(C2CCCC2)c1=O", "note": "[CPD-114, 2-(1-(4-(6-((6-Acetyl-8-cyclopentyl-5-methyl-7-oxo-7,8-dihydropyrido[2,3-d]pyrimidin-2-yl)amino)pyridin-3-yl)piperazin-1-yl)-2-oxo-6,9,12-trioxa-3-azapentadecan-15-amido)-N-(4,5-dimethylthiazol-2-yl)benzamide]", "values": [{"measurement": "inhibition at 0.2 µM", "setting": "CDK4; Calu-1 cells, 16 hours", "result": "> 80", "unit": "%"}, {"measurement": "CyclinD1 Degradation (200 nM)", "setting": "cyclin D1", "result": "A (protein percentage degradation >=80%)"}, {"measurement": "Kd", "setting": "DDB1", "result": "< 20", "unit": "µM"}]}, {"molecule": "Cc1cnc(NC(=O)c2ccc(NCCOCCOCCOCCOCCOCCNC(=O)CN3CCN(c4ccc(Nc5ncc6cc(C(=O)N(C)C)n(C7CCCC7)c6n5)nc4)CC3)cc2C)s1", "note": "[CPD-023, 7-Cyclopentyl-N,N-dimethyl-2-((5-(4-(20-((3-methyl-4-((5-methylthiazol-2-yl)carbamoyl)phenyl)amino)-2-oxo-6,9,12,15,18-pentaoxa-3-azaicosyl)piperazin-1-yl)pyridin-2-yl)amino)-7H-pyrrolo[2,3-d]pyrimidine-6-carboxamide]", "values": [{"measurement": "inhibition at 10 µM", "setting": "CDK4; Calu-1 cells, 10 μM, 16 hours", "result": "> 80", "unit": "%"}, {"measurement": "CyclinD1 Degradation (10 μM)", "setting": "cyclin D1", "result": "A (protein percentage degradation >= 80%)"}, {"measurement": "Kd", "setting": "DDB1", "result": "50 to 100", "unit": "µM"}]}, {"molecule": "CC(=O)c1c(C)c2cnc(Nc3ccc(N4CCN(CC(=O)NCCOCCOCCOCCOCCOCCNc5ccc(C(=O)Nc6nc(C7CC7)c(C)s6)c(C)c5)CC4)cn3)nc2n(C2CCCC2)c1=O", "note": "[CPD-046, 4-((1-(4-(6-((6-Acetyl-8-cyclopentyl-5-methyl-7-oxo-7,8-dihydropyrido[2,3-d]pyrimidin-2-yl)amino)pyridin-3-yl)piperazin-1-yl)-2-oxo-6,9,12,15,18-pentaoxa-3-azaicosan-20-yl)amino)-N-(4-cyclopropyl-5-methylthiazol-2-yl)-2-methylbenzamide]", "values": [{"measurement": "inhibition at 0.2 µM", "setting": "CDK4; Calu-1 cells, 16 hours", "result": "> 80", "unit": "%"}, {"measurement": "CyclinD1 Degradation (200 nM)", "setting": "cyclin D1", "result": "A (protein percentage degradation >=80%)"}, {"measurement": "Kd", "setting": "DDB1", "result": "< 20", "unit": "µM"}]}, {"molecule": "CC(=O)c1c(C)c2cnc(Nc3ccc(N4CCN(CC(=O)NCCOCCOCCC(=O)Nc5ccccc5C(=O)Nc5nc(C)c(C)s5)CC4)cn3)nc2n(C2CCCC2)c1=O", "note": "[CPD-115, 2-(3-(2-(2-(2-(4-(6-((6-Acetyl-8-cyclopentyl-5-methyl-7-oxo-7,8-dihydropyrido[2,3-d]pyrimidin-2-yl)amino)pyridin-3-yl)piperazin-1-yl)acetamido)ethoxy)ethoxy)propanamido)-N-(4,5-dimethylthiazol-2-yl)benzamide]", "values": [{"measurement": "inhibition at 0.2 µM", "setting": "CDK4; Calu-1 cells, 16 hours", "result": "> 80", "unit": "%"}, {"measurement": "CyclinD1 Degradation (200 nM)", "setting": "cyclin D1", "result": "A (protein percentage degradation >=80%)"}, {"measurement": "Kd", "setting": "DDB1", "result": "< 20", "unit": "µM"}]}, {"molecule": "Cc1cnc(NC(=O)c2ccc(NCCOCCOCCOCCOCCOCCNC(=O)CN3CCN(c4ccc(Nc5ncc(F)c(-c6cc(F)c7nc(C)n(C(C)C)c7c6)n5)nc4)CC3)cc2C)s1", "note": "[CPD-021, 4-((1-(4-(6-((5-Fluoro-4-(4-fluoro-1-isopropyl-2-methyl-1H-benzo[d]imidazol-6-yl)pyrimidin-2-yl)amino)pyridin-3-yl)piperazin-1-yl)-2-oxo-6,9,12,15,18-pentaoxa-3-azaicosan-20-yl)amino)-2-methyl-N-(5-methylthiazol-2-yl)benzamide]", "values": [{"measurement": "inhibition at 10 µM", "setting": "CDK4; Calu-1 cells, 10 μM, 16 hours", "result": "50 to 80", "unit": "%"}, {"measurement": "CyclinD1 Degradation (10 μM)", "setting": "cyclin D1", "result": "A (protein percentage degradation >= 80%)"}, {"measurement": "Kd", "setting": "DDB1", "result": "20 to 50", "unit": "µM"}]}, {"molecule": "CC(=O)c1c(C)c2cnc(Nc3ccc(N4CCN(CC(=O)NCCOCCOCCOCCOCCOCCNc5ccc(C(=O)Nc6nc(C(C)C)c(C)s6)c(C)c5)CC4)cn3)nc2n(C2CCCC2)c1=O", "note": "[CPD-043, 4-((1-(4-(6-((6-Acetyl-8-cyclopentyl-5-methyl-7-oxo-7,8-dihydropyrido[2,3-d]pyrimidin-2-yl)amino)pyridin-3-yl)piperazin-1-yl)-2-oxo-6,9,12,15,18-pentaoxa-3-azaicosan-20-yl)amino)-N-(4-isopropyl-5-methylthiazol-2-yl)-2-methylbenzamide]", "values": [{"measurement": "inhibition at 0.2 µM", "setting": "CDK4; Calu-1 cells, 16 hours", "result": "> 80", "unit": "%"}, {"measurement": "CyclinD1 Degradation (200 nM)", "setting": "cyclin D1", "result": "A (protein percentage degradation >=80%)"}, {"measurement": "Kd", "setting": "DDB1", "result": "< 20", "unit": "µM"}]}, {"molecule": "Cc1cnc(NC(=O)c2ccc(NCCOCCOCCOCCOCCOCCNC(=O)CN3CCN(Cc4ccc(Nc5ncc(F)c(-c6cc(F)c7nc(C)n(C(C)C)c7c6)n5)nc4)CC3)cc2C)s1", "note": "[CPD-020, 4-((1-(4-((6-((5-Fluoro-4-(4-fluoro-1-isopropyl-2-methyl-1H-benzo[d]imidazol-6-yl)pyrimidin-2-yl)amino)pyridin-3-yl)methyl)piperazin-1-yl)-2-oxo-6,9,12,15,18-pentaoxa-3-azaicosan-20-yl)amino)-2-methyl-N-(5-methylthiazol-2-yl)benzamide]", "values": [{"measurement": "inhibition at 10 µM", "setting": "CDK4; Calu-1 cells, 10 μM, 16 hours", "result": "< 30", "unit": "%"}, {"measurement": "CyclinD1 Degradation (10 μM)", "setting": "cyclin D1", "result": "D (protein percentage degradation < 30%)"}, {"measurement": "Kd", "setting": "DDB1", "result": "< 20", "unit": "µM"}]}, {"molecule": "Cc1cnc(NC(=O)c2ccc(NCCOCCOCCOCCOCCOCCNC(=O)CN3CCN(c4ccc(Nc5ncc6cc7n(c6n5)C5(CCCCC5)CNC7=O)nc4)CC3)cc2C)s1", "note": "[CPD-022, 2-Methyl-N-(5-methylthiazol-2-yl)-4-((2-oxo-1-(4-(6-((6′-oxo-7′,8′-dihydro-6′H-spiro[cyclohexane-1,9′-pyrazino[1′,2′:1,5]pyrrolo[2,3-d]pyrimidin]-2′-yl)amino)pyridin-3-yl)piperazin-1-yl)-6,9,12,15,18-pentaoxa-3-azaicosan-20-yl)amino)benzamide]", "values": [{"measurement": "inhibition at 10 µM", "setting": "CDK4; Calu-1, 16 h", "result": "> 80", "unit": "%"}, {"measurement": "CyclinD1 Degradation (10 μM)", "setting": "cyclin D1", "result": "A (protein percentage degradation >= 80%)"}, {"measurement": "Kd", "setting": "DDB1", "result": "< 20", "unit": "µM"}]}, {"molecule": "COC(=O)c1nc(NC(=O)c2ccc(NCCOCCOCCOCCOCCOCCNC(=O)CN3CCN(c4ccc(Nc5ncc6c(C)c(C(C)=O)c(=O)n(C7CCCC7)c6n5)nc4)CC3)cc2C)sc1C", "note": "[CPD-033, Methyl 2-(4-((1-(4-(6-((6-acetyl-8-cyclopentyl-5-methyl-7-oxo-7,8-dihydropyrido[2,3-d]pyrimidin-2-yl)amino)pyridin-3-yl)piperazin-1-yl)-2-oxo-6,9,12,15,18-pentaoxa-3-azaicosan-20-yl)amino)-2-methylbenzamido)-5-methylthiazole-4-carboxylate]", "values": [{"measurement": "inhibition at 0.2 µM", "setting": "CDK4; Calu-1 cells, 16 hours", "result": "> 80", "unit": "%"}, {"measurement": "CyclinD1 Degradation (200 nM)", "setting": "cyclin D1", "result": "A (protein percentage degradation >=80%)"}, {"measurement": "Kd", "setting": "DDB1", "result": "< 20", "unit": "µM"}]}, {"molecule": "CC(=O)c1c(C)c2cnc(Nc3ccc(N4CCN(CC(=O)NCCOCCOCCOCCOCCOCCNc5ccc(C(=O)Nc6nc(Br)c(C)s6)c(C)c5)CC4)cn3)nc2n(C2CCCC2)c1=O", "note": "[CPD-044, 4-((1-(4-(6-((6-Acetyl-8-cyclopentyl-5-methyl-7-oxo-7,8-dihydropyrido[2,3-d]pyrimidin-2-yl)amino)pyridin-3-yl)piperazin-1-yl)-2-oxo-6,9,12,15,18-pentaoxa-3-azaicosan-20-yl)amino)-N-(4-bromo-5-methylthiazol-2-yl)-2-methylbenzamide]", "values": [{"measurement": "inhibition at 0.2 µM", "setting": "CDK4; Calu-1 cells, 16 hours", "result": "50 to 80", "unit": "%"}, {"measurement": "CyclinD1 Degradation (200 nM)", "setting": "cyclin D1", "result": "A (protein percentage degradation >=80%)"}, {"measurement": "Kd", "setting": "DDB1", "result": "< 20", "unit": "µM"}]}, {"molecule": "CCc1nc(NC(=O)c2ccc(NCCOCCOCCOCCOCCOCCNC(=O)CN3CCN(c4ccc(Nc5ncc6c(C)c(C(C)=O)c(=O)n(C7CCCC7)c6n5)nc4)CC3)cc2C)sc1C", "note": "[CPD-047, 4-((1-(4-(6-((6-Acetyl-8-cyclopentyl-5-methyl-7-oxo-7,8-dihydropyrido[2,3-d]pyrimidin-2-yl)amino)pyridin-3-yl)piperazin-1-yl)-2-oxo-6,9,12,15,18-pentaoxa-3-azaicosan-20-yl)amino)-N-(4-ethyl-5-methylthiazol-2-yl)-2-methylbenzamide]", "values": [{"measurement": "inhibition at 0.2 µM", "setting": "CDK4; Calu-1 cells, 16 hours", "result": "> 80", "unit": "%"}, {"measurement": "CyclinD1 Degradation (200 nM)", "setting": "cyclin D1", "result": "A (protein percentage degradation >=80%)"}, {"measurement": "Kd", "setting": "DDB1", "result": "< 20", "unit": "µM"}]}]}
